Species on record: Rattus norvegicus
Experiment: Open TG-GATES - Regimen: Daily Repeat
Type: toxicity, organism-based, Sprague-Dawley
Design: regimen Daily Repeat, gender Male, age 6 weeks
Conditions: in vivo, po, 0 mg/kg, route gavage, dose level Control; for APTT / Bas / Eos / Fbg / Hb / Ht / Lym / MCH / MCHC / MCV / Mono / Neu / PT / Plat / RBC / Ret / WBC: tissue Blood; for KIDNEY_L / KIDNEY_R / KIDNEY_TOTAL: tissue Kidney; for LIVER: tissue Liver; for ALP / ALT / AST / BUN / CRE / Ca / Cl / DBIL / GLC / IP / K / LDH / Na / PL / RALB / TBIL / TC / TG / TP / gamma-GTP: tissue Plasma

O=P1(N(CCCl)CCCl)NCCCO1 (stereo not drawn) [CYCLOPHOSPHAMIDE ANHYDROUS]
TERMINAL_BW (72 h, time 3 day): 215.1 g
APTT (72 h, time 3 day): 21.5 s
Bas (72 h, time 3 day): 0%
Eos (72 h, time 3 day): 0.8%
Fbg (72 h, time 3 day): 293.2 mg/dL
Hb (72 h, time 3 day): 13.3 g/dL
Ht (72 h, time 3 day): 40.1%
Lym (72 h, time 3 day): 81.4%
MCH (72 h, time 3 day): 21.8 pg
MCHC (72 h, time 3 day): 33.2%
MCV (72 h, time 3 day): 65.7 fL
Mono (72 h, time 3 day): 2.6%
Neu (72 h, time 3 day): 14.6%
PT (72 h, time 3 day): 16.8 s
Plat (72 h, time 3 day): 112 x10_4/uL
RBC (72 h, time 3 day): 611 x10_4/ul
Ret (72 h, time 3 day): 6.7%
WBC (72 h, time 3 day): 82.4 x10_2/uL
KIDNEY_L (72 h, time 3 day): 0.9 g
KIDNEY_R (72 h, time 3 day): 0.9 g
KIDNEY_TOTAL (72 h, time 3 day): 1.9 g
LIVER (72 h, time 3 day): 10.1 g
ALP (72 h, time 3 day): 1749.2 IU/L
ALT (72 h, time 3 day): 40.2 IU/L
AST (72 h, time 3 day): 68 IU/L
BUN (72 h, time 3 day): 15.4 mg/dL
CRE (72 h, time 3 day): 0.2 mg/dL
Ca (72 h, time 3 day): 10.8 mg/dL
Cl (72 h, time 3 day): 106.2 meq/L
DBIL (72 h, time 3 day): 0.002 mg/dL
GLC (72 h, time 3 day): 182.6 mg/dL
IP (72 h, time 3 day): 6.4 mg/dL
K (72 h, time 3 day): 3.9 meq/L
LDH (72 h, time 3 day): 190.6 IU/L
Na (72 h, time 3 day): 142.6 meq/L
PL (72 h, time 3 day): 133.8 mg/dL
RALB (72 h, time 3 day): 3.1 g/dL
TBIL (72 h, time 3 day): 0.018 mg/dL
TC (72 h, time 3 day): 69.6 mg/dL
TG (72 h, time 3 day): 84.2 mg/dL
TP (72 h, time 3 day): 5.5 g/dL
gamma-GTP (72 h, time 3 day): 1 IU/L
TERMINAL_BW ([…], time 7 day): 254.4 g
TERMINAL_BW ([…], time 14 day): 304.2 g
TERMINAL_BW ([…], time 28 day): 368.5 g
APTT ([…], time 7 day): 21.7 s
Bas ([…], time 7 day): 0%
Eos ([…], time 7 day): 1%
Fbg ([…], time 7 day): 283.2 mg/dL
Hb ([…], time 7 day): 13.1 g/dL
Ht ([…], time 7 day): 39.7%
Lym ([…], time 7 day): 80%
MCH ([…], time 7 day): 20.7 pg
MCHC ([…], time 7 day): 33.1%
MCV ([…], time 7 day): 62.7 fL
Mono ([…], time 7 day): 2.4%
Neu ([…], time 7 day): 16.2%
PT ([…], time 7 day): 16.8 s
Plat ([…], time 7 day): 112.1 x10_4/uL
RBC ([…], time 7 day): 633.4 x10_4/ul
Ret ([…], time 7 day): 6.1%
WBC ([…], time 7 day): 106.9 x10_2/uL
APTT ([…], time 14 day): 22 s
Bas ([…], time 14 day): 0%
Eos ([…], time 14 day): 1%
Fbg ([…], time 14 day): 307.8 mg/dL
Hb ([…], time 14 day): 13.7 g/dL
Ht ([…], time 14 day): 40.6%
Lym ([…], time 14 day): 81.4%
MCH ([…], time 14 day): 20.2 pg
MCHC ([…], time 14 day): 33.7%
MCV ([…], time 14 day): 60 fL
Mono ([…], time 14 day): 2.2%
Neu ([…], time 14 day): 14.6%
PT ([…], time 14 day): 15 s
Plat ([…], time 14 day): 118.8 x10_4/uL
RBC ([…], time 14 day): 676.6 x10_4/ul
Ret ([…], time 14 day): 4.8%
WBC ([…], time 14 day): 131.2 x10_2/uL
APTT ([…], time 28 day): 23.8 s
Bas ([…], time 28 day): 0%
Eos ([…], time 28 day): 1%
Fbg ([…], time 28 day): 303.8 mg/dL
Hb ([…], time 28 day): 14.8 g/dL
Ht ([…], time 28 day): 43.6%
Lym ([…], time 28 day): 82.4%
MCH ([…], time 28 day): 19.2 pg
MCHC ([…], time 28 day): 34%
MCV ([…], time 28 day): 56.6 fL
Mono ([…], time 28 day): 2%
Neu ([…], time 28 day): 13.6%
PT ([…], time 28 day): 16.5 s
Plat ([…], time 28 day): 96.2 x10_4/uL
RBC ([…], time 28 day): 769.8 x10_4/ul
Ret ([…], time 28 day): 2.9%
WBC ([…], time 28 day): 112.3 x10_2/uL
KIDNEY_L ([…], time 7 day): 1.1 g
KIDNEY_R ([…], time 7 day): 1.1 g
KIDNEY_TOTAL ([…], time 7 day): 2.2 g
KIDNEY_L ([…], time 14 day): 1.2 g
KIDNEY_R ([…], time 14 day): 1.2 g
KIDNEY_TOTAL ([…], time 14 day): 2.4 g
KIDNEY_L ([…], time 28 day): 1.3 g
KIDNEY_R ([…], time 28 day): 1.3 g
KIDNEY_TOTAL ([…], time 28 day): 2.6 g
LIVER ([…], time 7 day): 11 g
LIVER ([…], time 14 day): 13.4 g
LIVER ([…], time 28 day): 14.2 g
ALP ([…], time 7 day): 1566.6 IU/L
ALT ([…], time 7 day): 44.8 IU/L
AST ([…], time 7 day): 77.6 IU/L
BUN ([…], time 7 day): 18.6 mg/dL
CRE ([…], time 7 day): 0.2 mg/dL
Ca ([…], time 7 day): 10.7 mg/dL
Cl ([…], time 7 day): 106 meq/L
DBIL ([…], time 7 day): 0 mg/dL
GLC ([…], time 7 day): 196.2 mg/dL
IP ([…], time 7 day): 7.9 mg/dL
K ([…], time 7 day): 4.4 meq/L
LDH ([…], time 7 day): 200.2 IU/L
Na ([…], time 7 day): 143.8 meq/L
PL ([…], time 7 day): 146.8 mg/dL
RALB ([…], time 7 day): 2.9 g/dL
TBIL ([…], time 7 day): 0.016 mg/dL
TC ([…], time 7 day): 73.8 mg/dL
TG ([…], time 7 day): 98.2 mg/dL
TP ([…], time 7 day): 5.4 g/dL
gamma-GTP ([…], time 7 day): 1.6 IU/L
ALP ([…], time 14 day): 1394.4 IU/L
ALT ([…], time 14 day): 37.8 IU/L
AST ([…], time 14 day): 65.8 IU/L
BUN ([…], time 14 day): 18.2 mg/dL
CRE ([…], time 14 day): 0.2 mg/dL
Ca ([…], time 14 day): 10.6 mg/dL
Cl ([…], time 14 day): 107 meq/L
DBIL ([…], time 14 day): 0 mg/dL
GLC ([…], time 14 day): 182.6 mg/dL
IP ([…], time 14 day): 7 mg/dL
K ([…], time 14 day): 4 meq/L
LDH ([…], time 14 day): 152 IU/L
Na ([…], time 14 day): 143.4 meq/L
PL ([…], time 14 day): 140.4 mg/dL
RALB ([…], time 14 day): 2.9 g/dL
TBIL ([…], time 14 day): 0.012 mg/dL
TC ([…], time 14 day): 67.4 mg/dL
TG ([…], time 14 day): 147.4 mg/dL
TP ([…], time 14 day): 5.7 g/dL
gamma-GTP ([…], time 14 day): 1.4 IU/L
ALP ([…], time 28 day): 1084 IU/L
ALT ([…], time 28 day): 40.4 IU/L
AST ([…], time 28 day): 66.4 IU/L
BUN ([…], time 28 day): 17.4 mg/dL
CRE ([…], time 28 day): 0.2 mg/dL
Ca ([…], time 28 day): 10.3 mg/dL
Cl ([…], time 28 day): 106.6 meq/L
DBIL ([…], time 28 day): 0 mg/dL
GLC ([…], time 28 day): 181.2 mg/dL
IP ([…], time 28 day): 6.4 mg/dL
K ([…], time 28 day): 4 meq/L
LDH ([…], time 28 day): 121.8 IU/L
Na ([…], time 28 day): 144 meq/L
PL ([…], time 28 day): 135.4 mg/dL
RALB ([…], time 28 day): 3.1 g/dL
TBIL ([…], time 28 day): 0.02 mg/dL
TC ([…], time 28 day): 67 mg/dL
TG ([…], time 28 day): 111.2 mg/dL
TP ([…], time 28 day): 6.2 g/dL
gamma-GTP ([…], time 28 day): 1.2 IU/L

— ChEMBL document CHEMBL3885861, “Open TG-GATES”
